According to patent US20120094998A1, “Oligomer-Protein Tyrosine Kinase Inhibitor Conjugates” (Nektar Therapeutics, priority 2009, published 2012):
Read-outs that look alike come from different tables or passages of the source.

Legend:
Assay type in all cases: biochemical
PDGFR_alpha = PDGFR_alpha (Homo sapiens, UniProt P16234); assay: Activity against various protein tyrosine kinases: PDGFR_alpha; conditions: for inhibition at 0.01 µM: 10 nM
Protocol: (§1) Using techniques know those of ordinary skill in the art, compounds were tested for activity against various protein tyrosine kinases.

TSSK2 = target: T1, TSSK2 (Homo sapiens, UniProt Q96PF2); assay: Activity against various protein tyrosine kinases: TSSK2; conditions: for inhibition at 0.01 µM: 10 nM
T1 sequence (Q96PF2 1-358): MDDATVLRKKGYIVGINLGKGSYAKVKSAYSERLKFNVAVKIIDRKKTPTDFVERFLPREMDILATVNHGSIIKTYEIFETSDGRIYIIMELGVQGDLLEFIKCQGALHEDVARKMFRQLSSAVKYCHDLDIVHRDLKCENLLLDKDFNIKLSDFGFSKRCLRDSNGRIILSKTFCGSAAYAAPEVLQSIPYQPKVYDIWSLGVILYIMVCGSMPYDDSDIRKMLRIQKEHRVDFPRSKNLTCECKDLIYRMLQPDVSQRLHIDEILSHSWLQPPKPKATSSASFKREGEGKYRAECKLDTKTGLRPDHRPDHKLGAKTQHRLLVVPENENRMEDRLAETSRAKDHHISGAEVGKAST
Protocol: as §1

CaMKII (beta) = CaMKII (beta) (Homo sapiens, UniProt Q13554); assay: Activity against various protein tyrosine kinases: CaMKII (beta); conditions: for inhibition at 0.01 µM: 10 nM
Protocol: as §1

AKT2 = AKT2 (Homo sapiens, UniProt P31751); assay: Activity against various protein tyrosine kinases: AKT2; conditions: for inhibition at 0.01 µM: 10 nM
AKT2, sequence (P31751 whole entry, species assumed): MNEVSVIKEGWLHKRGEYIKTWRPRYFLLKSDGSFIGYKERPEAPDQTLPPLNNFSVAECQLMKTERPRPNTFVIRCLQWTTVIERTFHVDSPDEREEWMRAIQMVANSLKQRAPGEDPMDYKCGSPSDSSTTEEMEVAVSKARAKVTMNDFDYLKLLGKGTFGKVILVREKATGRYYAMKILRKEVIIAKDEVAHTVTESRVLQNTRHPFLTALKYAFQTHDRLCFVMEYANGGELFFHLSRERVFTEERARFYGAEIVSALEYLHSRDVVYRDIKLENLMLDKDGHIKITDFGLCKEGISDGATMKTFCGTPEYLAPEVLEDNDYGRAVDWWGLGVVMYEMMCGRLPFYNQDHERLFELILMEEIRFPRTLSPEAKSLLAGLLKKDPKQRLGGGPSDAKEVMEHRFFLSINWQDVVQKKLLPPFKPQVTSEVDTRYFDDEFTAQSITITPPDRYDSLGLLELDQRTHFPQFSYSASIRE
Protocol: as §1

CaMKII (gamma) = CaMKII (gamma) (Homo sapiens, UniProt Q13555); assay: Activity against various protein tyrosine kinases: CaMKII (gamma); conditions: for inhibition at 0.01 µM: 10 nM
Protocol: as §1

PKCz = target: T2, PKCz (Homo sapiens, UniProt Q05513); assay: Activity against various protein tyrosine kinases: PKCz; conditions: for inhibition at 0.01 µM: 10 nM
T2 sequence (Q05513 1-592): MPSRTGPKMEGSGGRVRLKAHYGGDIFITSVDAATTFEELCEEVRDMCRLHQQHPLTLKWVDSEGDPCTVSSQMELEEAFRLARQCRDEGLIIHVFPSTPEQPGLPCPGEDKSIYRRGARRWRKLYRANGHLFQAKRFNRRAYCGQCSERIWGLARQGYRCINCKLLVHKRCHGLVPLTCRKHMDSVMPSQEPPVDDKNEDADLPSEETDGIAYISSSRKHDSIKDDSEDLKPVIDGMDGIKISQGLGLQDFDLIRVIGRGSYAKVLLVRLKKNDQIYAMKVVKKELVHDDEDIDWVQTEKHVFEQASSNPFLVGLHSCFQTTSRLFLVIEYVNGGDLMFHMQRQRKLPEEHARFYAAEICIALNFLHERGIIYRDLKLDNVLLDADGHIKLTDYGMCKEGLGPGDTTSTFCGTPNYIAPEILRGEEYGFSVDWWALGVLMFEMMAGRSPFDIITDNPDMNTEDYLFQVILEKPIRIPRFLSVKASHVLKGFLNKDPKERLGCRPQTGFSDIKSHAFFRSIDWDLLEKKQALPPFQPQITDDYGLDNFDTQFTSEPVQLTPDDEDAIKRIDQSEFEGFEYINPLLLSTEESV
Protocol: as §1

FGFR2 (N549H) = FGFR2 (N549H) (Homo sapiens, UniProt P21802, N549H); assay: Activity against various protein tyrosine kinases: FGFR2 (N549H); conditions: for inhibition at 0.01 µM: 10 nM
FGFR2 (N549H), sequence (P21802 22-821 N549H, species assumed): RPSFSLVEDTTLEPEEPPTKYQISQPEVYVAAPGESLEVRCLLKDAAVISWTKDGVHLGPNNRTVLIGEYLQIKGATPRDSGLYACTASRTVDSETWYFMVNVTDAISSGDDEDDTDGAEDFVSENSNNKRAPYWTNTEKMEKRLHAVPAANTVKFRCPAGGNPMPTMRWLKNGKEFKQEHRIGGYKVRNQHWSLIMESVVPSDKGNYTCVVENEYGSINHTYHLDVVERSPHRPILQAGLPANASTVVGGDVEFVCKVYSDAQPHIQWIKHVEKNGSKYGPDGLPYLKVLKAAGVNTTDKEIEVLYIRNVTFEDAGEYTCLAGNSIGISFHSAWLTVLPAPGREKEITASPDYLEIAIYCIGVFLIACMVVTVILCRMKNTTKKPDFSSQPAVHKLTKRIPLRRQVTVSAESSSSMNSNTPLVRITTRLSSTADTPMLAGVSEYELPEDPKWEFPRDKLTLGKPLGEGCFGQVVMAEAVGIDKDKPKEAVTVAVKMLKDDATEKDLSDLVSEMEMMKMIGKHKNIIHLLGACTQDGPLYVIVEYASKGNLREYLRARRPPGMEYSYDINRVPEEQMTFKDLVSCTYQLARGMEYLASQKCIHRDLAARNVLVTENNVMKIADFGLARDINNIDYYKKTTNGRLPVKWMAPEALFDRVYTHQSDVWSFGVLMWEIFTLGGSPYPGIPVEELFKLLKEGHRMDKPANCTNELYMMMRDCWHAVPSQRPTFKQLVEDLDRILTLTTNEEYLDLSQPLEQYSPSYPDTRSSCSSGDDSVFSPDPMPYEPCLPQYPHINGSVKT
Protocol: as §1

AKT1 = AKT1 (Homo sapiens, UniProt P31749); assay: Activity against various protein tyrosine kinases: AKT1; conditions: for inhibition at 0.01 µM: 10 nM
Protocol: as §1

p38a = p38a (Homo sapiens, UniProt Q16539); assay: Activity against various protein tyrosine kinases: p38a; conditions: for inhibition at 1 µM: read-out: % Inhibition at 1 μM; for inhibition at 0.01 µM: 10 nM
p38a, sequence (Q16539 whole entry): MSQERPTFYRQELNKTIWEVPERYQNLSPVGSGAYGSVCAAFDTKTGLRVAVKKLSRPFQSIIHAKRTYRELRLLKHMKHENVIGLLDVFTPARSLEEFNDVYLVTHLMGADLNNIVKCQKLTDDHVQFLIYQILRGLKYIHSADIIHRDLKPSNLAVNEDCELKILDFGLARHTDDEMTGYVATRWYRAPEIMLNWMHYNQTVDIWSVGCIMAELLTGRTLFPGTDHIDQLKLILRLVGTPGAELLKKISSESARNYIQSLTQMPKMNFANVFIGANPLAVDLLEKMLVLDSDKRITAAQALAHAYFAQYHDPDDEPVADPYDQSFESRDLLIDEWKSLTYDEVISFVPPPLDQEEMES
Protocol: as §1

FGFR4 = FGFR4 (Homo sapiens, UniProt P22455); assay: Activity against various protein tyrosine kinases: FGFR4; conditions: for inhibition at 0.01 µM: 10 nM
Protocol: as §1

EPHA2 = EPHA2 (Homo sapiens, UniProt P29317); assay: Activity against various protein tyrosine kinases: EPHA2; conditions: for inhibition at 0.01 µM: 10 nM
EPHA2, sequence (P29317 24-976, species assumed): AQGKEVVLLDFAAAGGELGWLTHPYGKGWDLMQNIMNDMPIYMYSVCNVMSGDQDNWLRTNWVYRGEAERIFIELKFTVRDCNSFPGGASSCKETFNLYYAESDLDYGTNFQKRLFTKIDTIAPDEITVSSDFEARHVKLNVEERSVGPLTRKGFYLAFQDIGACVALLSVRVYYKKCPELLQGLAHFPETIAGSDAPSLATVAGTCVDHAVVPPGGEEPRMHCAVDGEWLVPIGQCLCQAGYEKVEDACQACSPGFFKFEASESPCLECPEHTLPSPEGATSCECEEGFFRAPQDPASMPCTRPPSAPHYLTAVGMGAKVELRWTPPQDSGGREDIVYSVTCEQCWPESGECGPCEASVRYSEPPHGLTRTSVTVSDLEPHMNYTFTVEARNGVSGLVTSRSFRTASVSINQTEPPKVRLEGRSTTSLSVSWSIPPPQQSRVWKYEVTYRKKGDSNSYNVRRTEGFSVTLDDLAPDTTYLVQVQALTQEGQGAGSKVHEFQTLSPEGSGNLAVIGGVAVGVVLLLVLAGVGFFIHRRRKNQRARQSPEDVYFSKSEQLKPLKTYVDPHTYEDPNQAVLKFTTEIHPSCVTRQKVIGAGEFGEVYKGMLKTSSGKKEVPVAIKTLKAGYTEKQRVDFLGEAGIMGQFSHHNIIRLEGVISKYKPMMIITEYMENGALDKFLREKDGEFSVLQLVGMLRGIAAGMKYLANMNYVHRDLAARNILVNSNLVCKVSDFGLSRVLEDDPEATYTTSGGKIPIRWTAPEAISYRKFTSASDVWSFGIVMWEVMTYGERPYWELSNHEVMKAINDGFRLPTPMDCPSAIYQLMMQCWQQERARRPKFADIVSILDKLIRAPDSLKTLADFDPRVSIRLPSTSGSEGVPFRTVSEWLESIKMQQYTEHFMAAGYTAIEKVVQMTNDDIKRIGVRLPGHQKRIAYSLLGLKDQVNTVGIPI
Protocol: as §1

ABL (T315I) = ABL (T315I) (Homo sapiens, UniProt P00519, T315I); assay: Activity against various protein tyrosine kinases: ABL (T315I); conditions: for inhibition at 0.01 µM: read-out: % Inhibition at 10 nM; for inhibition at 1 µM: read-out: % Inhibition at 1 μM
Protocol: as §1

PDGFR_beta = PDGFR_beta (Homo sapiens, UniProt P09619); assay: Activity against various protein tyrosine kinases: PDGFR_beta; conditions: for inhibition at 0.01 µM: 10 nM
PDGFR_beta, sequence (P09619 33-1106, species assumed): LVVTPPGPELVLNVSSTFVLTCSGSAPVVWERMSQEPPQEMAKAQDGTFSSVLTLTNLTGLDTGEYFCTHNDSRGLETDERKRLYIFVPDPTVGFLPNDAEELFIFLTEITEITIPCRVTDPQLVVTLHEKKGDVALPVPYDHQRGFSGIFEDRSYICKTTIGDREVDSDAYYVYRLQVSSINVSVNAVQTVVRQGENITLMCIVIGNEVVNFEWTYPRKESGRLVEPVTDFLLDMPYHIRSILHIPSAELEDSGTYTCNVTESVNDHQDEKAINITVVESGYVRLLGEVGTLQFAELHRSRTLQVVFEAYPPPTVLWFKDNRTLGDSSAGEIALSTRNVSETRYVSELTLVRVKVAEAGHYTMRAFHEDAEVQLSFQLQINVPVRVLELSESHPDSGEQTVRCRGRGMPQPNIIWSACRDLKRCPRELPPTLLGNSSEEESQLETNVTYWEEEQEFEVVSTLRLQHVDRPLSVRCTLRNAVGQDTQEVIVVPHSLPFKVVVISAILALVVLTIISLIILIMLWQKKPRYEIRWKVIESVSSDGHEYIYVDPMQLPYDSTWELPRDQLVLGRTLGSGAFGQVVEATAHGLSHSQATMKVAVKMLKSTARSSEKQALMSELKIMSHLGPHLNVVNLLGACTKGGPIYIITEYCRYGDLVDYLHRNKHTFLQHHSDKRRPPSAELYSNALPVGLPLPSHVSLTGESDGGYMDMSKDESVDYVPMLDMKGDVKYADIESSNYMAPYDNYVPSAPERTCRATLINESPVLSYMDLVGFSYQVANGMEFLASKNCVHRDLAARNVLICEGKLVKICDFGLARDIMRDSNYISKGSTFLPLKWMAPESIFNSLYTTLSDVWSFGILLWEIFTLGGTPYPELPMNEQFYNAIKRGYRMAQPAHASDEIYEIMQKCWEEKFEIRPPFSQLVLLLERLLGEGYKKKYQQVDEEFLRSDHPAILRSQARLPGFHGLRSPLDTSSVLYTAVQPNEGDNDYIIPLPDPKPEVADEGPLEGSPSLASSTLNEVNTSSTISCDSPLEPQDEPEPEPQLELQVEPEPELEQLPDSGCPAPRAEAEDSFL
Protocol: as §1

p38-delta = target: T3, p38-delta (Homo sapiens, UniProt O15264); assay: Activity against various protein tyrosine kinases: p38-delta; conditions: for inhibition at 0.01 µM: 10 nM
T3 sequence (O15264 1-365): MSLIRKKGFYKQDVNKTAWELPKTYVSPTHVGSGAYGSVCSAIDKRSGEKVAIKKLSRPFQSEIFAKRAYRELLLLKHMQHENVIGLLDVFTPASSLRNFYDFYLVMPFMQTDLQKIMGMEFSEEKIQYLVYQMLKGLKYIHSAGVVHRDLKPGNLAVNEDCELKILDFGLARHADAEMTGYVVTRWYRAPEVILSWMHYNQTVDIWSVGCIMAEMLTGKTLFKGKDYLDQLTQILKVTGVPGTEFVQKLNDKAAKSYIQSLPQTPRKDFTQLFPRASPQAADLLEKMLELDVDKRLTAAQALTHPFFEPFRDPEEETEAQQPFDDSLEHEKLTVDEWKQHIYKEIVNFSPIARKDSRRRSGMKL
Protocol: as §1

EGFR = EGFR (Homo sapiens, UniProt P00533); assay: Activity against various protein tyrosine kinases: EGFR; conditions: for inhibition at 0.01 µM: 10 nM
EGFR, sequence (P00533 25-1210, species assumed): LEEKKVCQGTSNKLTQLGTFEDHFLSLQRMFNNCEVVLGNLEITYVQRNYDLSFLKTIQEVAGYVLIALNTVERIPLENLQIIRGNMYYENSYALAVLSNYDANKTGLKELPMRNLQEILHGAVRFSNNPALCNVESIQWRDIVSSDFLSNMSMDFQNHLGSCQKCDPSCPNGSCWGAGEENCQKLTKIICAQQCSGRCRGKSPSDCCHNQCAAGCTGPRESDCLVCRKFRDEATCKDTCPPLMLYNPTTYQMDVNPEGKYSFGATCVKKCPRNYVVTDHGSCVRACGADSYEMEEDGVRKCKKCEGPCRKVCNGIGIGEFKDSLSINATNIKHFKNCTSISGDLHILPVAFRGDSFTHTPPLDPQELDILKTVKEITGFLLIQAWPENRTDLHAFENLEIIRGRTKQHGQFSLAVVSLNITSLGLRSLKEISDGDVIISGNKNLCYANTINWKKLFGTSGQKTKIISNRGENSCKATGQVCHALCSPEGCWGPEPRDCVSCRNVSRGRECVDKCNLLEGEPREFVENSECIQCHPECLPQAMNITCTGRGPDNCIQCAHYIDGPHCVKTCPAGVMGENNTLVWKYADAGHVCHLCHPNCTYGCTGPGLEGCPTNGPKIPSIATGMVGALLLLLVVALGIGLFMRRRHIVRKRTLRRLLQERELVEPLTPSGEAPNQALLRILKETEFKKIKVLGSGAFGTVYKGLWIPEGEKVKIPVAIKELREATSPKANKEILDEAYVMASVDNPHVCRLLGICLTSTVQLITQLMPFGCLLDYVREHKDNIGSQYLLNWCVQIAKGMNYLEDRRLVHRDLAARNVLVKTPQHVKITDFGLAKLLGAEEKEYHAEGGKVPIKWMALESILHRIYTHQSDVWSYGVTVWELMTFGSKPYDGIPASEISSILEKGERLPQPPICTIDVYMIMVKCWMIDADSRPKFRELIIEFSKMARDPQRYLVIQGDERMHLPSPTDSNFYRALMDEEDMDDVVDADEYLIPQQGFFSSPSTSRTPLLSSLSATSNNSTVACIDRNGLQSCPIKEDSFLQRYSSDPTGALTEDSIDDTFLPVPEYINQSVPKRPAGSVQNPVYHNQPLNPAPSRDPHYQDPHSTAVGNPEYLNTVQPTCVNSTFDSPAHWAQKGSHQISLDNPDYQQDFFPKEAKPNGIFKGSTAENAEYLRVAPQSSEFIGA
Protocol: as §1

Erk1 = Erk1 (Homo sapiens, UniProt P27361); assay: Activity against various protein tyrosine kinases: Erk1; conditions: for inhibition at 0.01 µM: 10 nM
Protocol: as §1

ABL (H396P) = ABL (H396P) (Homo sapiens, UniProt P00519, H396P); assay: Activity against various protein tyrosine kinases: ABL (H396P); conditions: for inhibition at 0.01 µM: read-out: % Inhibition at 10 nM; for inhibition at 1 µM: read-out: % Inhibition at 1 μM
Protocol: as §1

FGFR1 = FGFR1 (Homo sapiens, UniProt P11362); assay: Activity against various protein tyrosine kinases: FGFR1; conditions: for inhibition at 0.01 µM: 10 nM
Protocol: as §1

PKA = assay: Activity against various protein tyrosine kinases: PKA
Protocol: as §1

YES = YES (Homo sapiens, UniProt P07947); assay: Activity against various protein tyrosine kinases: YES; conditions: for inhibition at 0.01 µM: 10 nM
Protocol: as §1

SMILES	inhibition at 0.01 µM (PDGFR_alpha) [%]	inhibition at 0.01 µM (TSSK2) [%]	inhibition at 1 µM (CaMKII (beta)) [%]	inhibition at 1 µM (AKT2) [%]	inhibition at 0.01 µM (CaMKII (gamma)) [%]	inhibition at 0.01 µM (PKCz) [%]	inhibition at 0.01 µM (FGFR2 (N549H)) [%]	inhibition at 1 µM (FGFR2 (N549H)) [%]	inhibition at 0.01 µM (AKT1) [%]	inhibition at 1 µM (AKT1) [%]	inhibition at 0.01 µM (FGFR4) [%]	inhibition at 0.01 µM (EPHA2) [%]	inhibition at 1 µM (EPHA2) [%]	inhibition at 1 µM (PDGFR_alpha) [%]	inhibition at 0.01 µM (PDGFR_beta) [%]	inhibition at 1 µM (PDGFR_beta) [%]	inhibition at 1 µM (TSSK2) [%]	inhibition at 0.01 µM (CaMKII (beta)) [%]	inhibition at 0.01 µM (AKT2) [%]	inhibition at 1 µM (CaMKII (gamma)) [%]	other results
Cc1nc(Nc2ncc(C(=O)Nc3c(C)cccc3Cl)s2)cc(N2CCN(CCO)CC2)n1 [Dasatinib, reference compound]	10	-3	3	-2	5	2	6	71	-6	-2	-2										inhibition at 1 µM (p38a): 75%
COCCOCCOCCOCCOCCOCCOCCNC(=O)OCCN1CCN(c2cc(Nc3ncc(C(=O)Nc4c(C)cccc4Cl)s3)nc(C)n2)CC1 [mPEG7-NHCOO-Dasatinib]	46	3	2	3	6	5	5	63	-1	0	0	36	101	98	60	100	-2	1	3	3	inhibition at 0.01 µM (ABL (T315I); ABL (T315I), 10 nM): 4%; inhibition at 1 µM (ABL (T315I); ABL (T315I), 1 μM): 26%; inhibition at 1 µM (PKCz): -9%; inhibition at 0.01 µM (p38-delta): 0%; inhibition at 1 µM (p38-delta): 0%; inhibition at 0.01 µM (EGFR): 6%; inhibition at 1 µM (EGFR): 62%; inhibition at 0.01 µM (Erk1): 3%; inhibition at 1 µM (Erk1): 4%; inhibition at 0.01 µM (ABL (H396P); ABL (H396P), 10 nM): 99%; inhibition at 1 µM (ABL (H396P); ABL (H396P), 1 μM): 99%; inhibition at 0.01 µM (FGFR1): 2%; inhibition at 1 µM (FGFR1): 3%; % Inhibition at 10 nM (PKA): 0%; % Inhibition at 1 μM (PKA): 2%; inhibition at 0.01 µM (YES): 100%; inhibition at 1 µM (YES): 102%; inhibition at 0.01 µM (p38a; p38a): 5%; inhibition at 1 µM (p38a; p38a, 1 μM): 74%; inhibition at 1 µM (FGFR4): 2%
COCCOCCOCCNC(=O)OCCN1CCN(c2cc(Nc3ncc(C(=O)Nc4c(C)cccc4Cl)s3)nc(C)n2)CC1 [mPEG3-NHCOO-Dasatinib]	58	-1	2	7	2	-12	7	75	7	0	3	40	100	99	48	99	0	1	9	2	inhibition at 0.01 µM (ABL (T315I)): 1%; inhibition at 1 µM (ABL (T315I)): 36%; inhibition at 1 µM (PKCz): -13%; inhibition at 0.01 µM (p38-delta): 0%; inhibition at 1 µM (p38-delta): 2%; inhibition at 0.01 µM (EGFR): 3%; inhibition at 1 µM (EGFR): 76%; inhibition at 0.01 µM (Erk1): 3%; inhibition at 1 µM (Erk1): 2%; inhibition at 0.01 µM (ABL (H396P)): 99%; inhibition at 1 µM (ABL (H396P)): 99%; inhibition at 0.01 µM (FGFR1): 11%; inhibition at 1 µM (FGFR1): -3%; % Inhibition at 10 nM (PKA): 3%; % Inhibition at 1 μM (PKA): 0%; inhibition at 0.01 µM (YES): 100%; inhibition at 1 µM (YES): 100%; inhibition at 0.01 µM (p38a; p38a): 6%; inhibition at 1 µM (p38a; p38a, 1 μM): 81%; inhibition at 1 µM (FGFR4): 6%
